In patent US8454982B2, “Stable S-(+)-abscisic acid liquid and soluble granule formulations” (Valent BioSciences Corporation, priority 2007, dated 2013):

What was measured:
Flame Seedless grapes = experiment: Field table grape coloration; type: in vivo; settings: for Number of colored clusters per 4 vines: foliar, 200 gallons/acre
Protocol: ABA formulation performance was evaluated in the field using table grape coloration to assess efficacy. Treatments consisted of untreated control, ethephon control (industry standard ethylene-releasing agent), ABA technical (95% ABA solubilized in ethanol), ABA liquid formulation, and ABA water-soluble granule formulation. All treatments had 0.05% v/v Latron B-1956 surfactant included. The three ABA treatments (200 ppm ABA; 200 gallons/acre) and the ethephon control (250 ppm at 200 gallons/acre) were foliar applied with a backpack sprayer at 10 to 20% color development (June 27) on Flame Seedless grapes commercially grown in Arvin, Calif. The numbers of color clusters per 4 vines were assessed at 8 and 11 days after treatment.

Coleus plants = experiment: Greenhouse Coleus wilting (drought tolerance, shelf life); type: in vivo
Protocol: ABA formulation performance was evaluated in the greenhouse using Coleus wilting to assess efficacy. Treatments consisted of control, ABA technical (95% ABA solubilized in ethanol), ABA liquid formulation, and ABA water-soluble granule formulation. Coleus plants were grown in four-inch diameter pots to the 6 to 8 leaf stage (n=4 plants/treatment). Water (15 mL/plant) was drench-applied to the control plants, and ABA (15 mL/plant; 250 ppm ABA) was drench applied to ABA treated plants. The plants were held in a greenhouse without irrigation until all plants wilted to a point when they were determined to be unmarketable. The plants were rated daily for the extent of wilting on a scale from 1 (no wilting) to 4 (complete wilting). A rating of 2.5 was the point at which a plant was determined to be unmarketable and the previous day was recorded as the marketable life of that plant in days.

Compound	Number of colored clusters per 4 vines (Flame Seedless grapes; 8 days after treatment)	Number of colored clusters per 4 vines (Flame Seedless grapes; 11 days after treatment)	Number of colored clusters, comparison (Flame Seedless grapes; in vivo)	Days of shelf life after treatment (Coleus plants; drench 15 mL/plant, 250 ppm ABA, no irrigation)	Coleus wilting / shelf life, comparison (Coleus plants; in vivo)
CC1=CC(=O)CC(C)(C)[C@@]1(O)/C=C/C(C)=C\C(=O)O [ABA technical, S-(+)-abscisic acid]	9.0	11.2	increased the number of colored clusters more than the ethephon control	12 days	delayed wilting and increased shelf life of Coleus plants
O=P(O)(O)CCCl [Ethephon control, ethephon, reference compound]	6.0	6.7	–	–	–
